Columns and labels:
[1] = test system: Poly I:C-induced cholestatic liver disease animal models; assay: Treatment effect in Poly I:C-induced primary biliary cirrhosis (PBC) mouse animal models; type: in vivo, C57BL/6 male mice
Procedure: Of cholestatic liver diseases, primary biliary cirrhosis (PBC) may be introduced to a similar state by using a viral RNA mimic and the Toll-like receptor polyinosinic-polycytidylic acid (Poly I:C). After 8-week-old C57BL/6 male mice (Samtako, Korea) were divided into each group (=6), each experimental group excluding a normal group was intraperitoneally administered 5 mg/kg Poly I:C twice a week for 8 weeks. Thereafter, the mice were fed a diet with control (vehicle), β-lapachone 40 mg/kg, β-lapachone 80 mg/kg, and positive control ursodeoxycholic acid 100 mg/kg and obeticholic acid 30 mg/kg for 8 weeks. On the 16th week of treatment, the experiment was ended, and the mice were sacrificed and then the blood was collected from the heart.

[2] = test system: DDC-induced cholestatic liver disease mice; assay: Preventive effect in DDC-induced cholestatic liver disease mouse animal models (β-lapachone given 3 days before DDC); type: in vivo, C57BL/6 male mice
Procedure: DDC-induced cholestatic liver disease mouse animal models were prepared according to the method of Elisa Pose et al. by using 8-week-old C57BL/6 male mice (Samtako, Korea). Briefly, cholestatic liver disease was induced by feeding a standard rodent diet supplemented with 0.1% (w/w) DDC for 7 or 14 days. The 12-hour light and dark cycle was maintained and animals were allowed to free access to water. The standard rodent diet included medium wheat, wheat, corn, and corn gluten flour, and soybean oil (14% protein). All animal related procedures were reviewed and approved by the Institutional Animal Care and Use Committee of Korea Research Institute of Bioscience and Biotechnology (KRIBB), KRIBB-AEC-20165). The tissue staining of the cholestatic liver disease animal models was measured through H&E staining (basic tissue staining), Sirius Red staining (collagen staining), and Masson's trichrome staining (collagen, cytoplasm, muscle fibers, etc.), and the tissue staining was measured by a skilled researcher. To investigate the preventive effect of β-Lapachone (BL) on cholestatic liver disease, the mice were fed a diet with 0 (DDC-vehicle), 40 mg/kg (DDC-BL40) and 80 mg/kg (DDC-BL80) 3 days before DDC treatment (total 17 days) and, after 3 days, were fed a diet with DDC (total 14 days). After 14 days of DDC treatment, the mice were sacrificed and the liver was harvested including the portal vein (PV) and bile ducts of the mice, and the surrounding lesions were confirmed by H&E, and are shown in FIG. 1. The liver harvested in Example 2.1 was investigated for tissues or connective tissues around cells through Sirius Red and Masson's trichrome staining, which are shown in FIG. 2A. The expression of the factors in the liver tissue obtained from the cholestatic liver disease mouse animal models of Example 2.1 was performed by a real-time polymerase chain reaction was performed according to the following procedure. Total RNA from liver samples was extracted using Tri-RNA Reagent (Favrogen BIOTECH CORP, Nong-Ke Rd, Taiwan) according to the procedure presented by Favrogen, and was reverse transcribed into cDNA by using PrimeScript™ RT reagent Kit with gDNA Eraser (TAKARA Korea Biomedical Inc, Seoul, 08506, Korea). Quantitative PCR was performed using TB Green™ Premix Ex Tag™ II (Tli RNaseH Plus), ROX plus (TAKARA Korea Biomedical Inc, Seoul, 08506, Korea) and QuantStudio 5 Real-Time PCR Instrument (Thermo Fisher Scientific, Waltham, MA, USA).

[3] = test system: DDC-induced cholestatic liver disease mice; assay: Treatment effect in cholestatic liver disease-induced mice (DDC 3 days, then treatment 4 days); type: in vivo, C57BL/6 male mice
Procedure: The treatment effect of β-lapachone in cholestatic liver disease-induced mouse animals were investigated. After 8-week-old C57BL/6 male mice (Samtako, Korea) were divided into each group (=6), each group excluding a control group was fed a diet containing 0.1% DDC for 3 days. Thereafter, the mice were fed a diet with DDC control (vehicle), DDC-+β-lapachone 20 mg/kg, DDC-+β-lapachone 40 mg/kg, DDC-+β-lapachone 80 mg/kg, and positive control DDC+obeticholic acid 30 mg/kg for 4 days (total 7 days). After 7 days of feeding, the mice were sacrificed and then the blood was collected from the heart.

[4] = test system: DDC-induced cholestatic liver disease mice; assay: DDC-induced cholestatic liver disease mice, DDC and β-lapachone administered together for 7 days; type: in vivo, C57BL/6 male mice
Procedure: To investigate the effect of β-lapachone (BL) on the occurrence of cholestatic liver disease, both […] and β-lapachone were administered to mice to characterize animal models.
After 8-week-old C57BL/6 male mice (Samtako, Korea) were divided into each group (=6), the mice were fed a diet with normal (vehicle), control (DDC), DDC-+β-lapachone 20 mg/kg, DDC+β-lapachone 40 mg/kg, DDC+β-lapachone 80 mg/kg, DDC+β-lapachone 100 mg/kg, and positive control DDC+ursodeoxycholic acid 100 mg/kg, and DDC+obeticholic acid 30 mg/kg (total 7 days). After 7 days of treatment, the mice were sacrificed and then the blood was collected from the heart. Thereafter, the levels of alanine aminotransferase (ALT), aspartate aminotransferase (AST), alkaline phosphatase (ALP), and bilirubin, which are blood indexes, were analyzed, and shown in FIG. 4.
After the cholestatic liver disease mouse animal models in Example 3.1 were sacrificed and the liver tissue was harvested therefrom, the mRNA levels of fibrosis-related genes were measured by a method similar to the method in Example 2.3.
In the cholestatic liver disease, the inflammation in the portal vein and damage to the bile ducts in the liver occur chronically, resulting in cholestasis and liver fibrosis. The mRNA levels of inflammatory cytokine genes in the liver tissue of the cholestatic liver disease mouse animal models obtained by the same method as in Example 3.1 were measured, and shown in FIG. 6.

[5] = test system: peripheral blood mononuclear cells (PBMCs); assay: IL-1β and IL-18 expression in LPS and ATP treated peripheral blood mononuclear cells; type: cell-based, C57BL/6 male mice; details: LPS 200 ng/mL and ATP, β-lapachone 0.5, 1, 2 μM, 4 hours
Procedure: Considering that inflammatory cytokines mediate the pathogenic mechanism of cholestatic liver disease, the peripheral blood mononuclear cell model was used by a modified method of Boyum et al. (1968). Peripheral blood mononuclear cells isolated from healthy 8-week-old C57BL/6 male mice (Samtako, Korea) were maintained by primary culture in RPMI-1640 medium containing 10% FBS, 2 mM glutamine, 100 U penicillin, and 0.1 mg/ml streptomycin. Stable peripheral blood mononuclear cells (PBMCs) were treated with LPS at 200 ng/mL and ATP and β-lapachone at 0, 0.5, 1, 2 μM in the medium and, after 4 hours, the expression levels of IL-1β and IL-18 were investigated, and the results are shown in FIG. 15.

[6] = test system: macrophage line Raw264.7; assay: Inflammatory cytokine release in LPS and ATP treated macrophage line Raw264.7 (ELISA); type: cell-based; details: Raw264.7, LPS 100 ng/ml, ATP 2.5 mM, 0.2, 0.5, 1, 2 μM β-lapachone, 24 hours; supernatant ELISA
Procedure: The macrophage line Raw264.7 (ATCC TIB-71, Manassas, VA, USA) was subcultured in DMEM supplemented with 10% FBS and 1% penicillin/streptomycin.
For inflammation induction, RAW264.7 cells were suspended in DMEM containing 2% FBS, inoculated in a 12-well plate to a cell number of 4×10^5/ml, and incubated in 5% CO2 incubator at 37° C. for 24 hours. With replacement with fresh media, the cells were treated with appropriate concentrations of a corresponding substance, LPS (100 ng/ml), and 0.2, 0.5, 1, and 2 μM β-lapachone, cultured for 24 hours, treated with ATP (2.5 mM), and then cultured for additional 30 minutes, and the supernatant was collected. The release of cytokines (IL-1β and TNF-α) of RaW264.7 macrophages was quantified using each cell-free supernatant-ELISA set (Invitrogen, Billerica, MA, USA) by Invitrogen according to the manufacture's instruction, and is shown in FIG. 14.

[7] = test system: LX-2 hepatic stellate cell line; assay: Fibronectin and α-SMA protein expression in TGF-β1-treated LX-2 hepatic stellate cell line (immunoblotting); type: cell-based; details: LX-2, 1 ng/ml TGF-β1 + 0.5 or 1 μM β-lapachone, 24 hours
Procedure: Considering that inflammation and fibrosis of bile ducts cause cirrhosis in cholestatic liver disease, experiments were performed on the LX-2 hepatic stellate cell line model by using the method of Takaaki Higashi et al. (2017). The LX-2 cell line was subcultured in DMEM containing 10% FBS, 2 mM glutamine, 100 U penicillin, and 0.1 mg/ml streptomycin. The LX-2 cell line was added into a 6-well plate at a density of 16×10^4 cells/well, and cultured in DMEM containing 1 ng/ml TGF-β1, 1 ng/ml TGF-β1+0.5 μM β-lapachone or 1 ng/ml TGF-β1+1 μM β-lapachone for 24 hours. Thereafter, the protein expression levels of the fibrosis-related genes fibronectin and α-SMA of the obtained cells were measured by protein immunoblotting according to a conventional method known in the art.

[8] = test system: DSS-induced inflammatory bowel disease mice; assay: DSS-induced inflammatory bowel disease (acute colitis) mouse models; type: in vivo, C57BL/6 female mice; details: for mortality (percent of mice that died): 14th day of the experiment, 70% died in DSS-induced IBD mice
Procedure: Dextran sodium sulfate (DSS)-induced acute colitis mouse models were constructed using 8-week-old C57BL/6 female mice (Samtako, Korea).
After 8-week-old C57BL/6 female mice (Samtako, Korea) were divided into each group (=10), each experimental group was fed a standard rodent diet supplemented with 3% (w/w) DSS in drinking water for the first 5 days to induce acute colitis and orally administered control (vehicle), β-lapachone 40 mg/kg, and β-lapachone 80 mg/kg for 14 days.
All animal-related procedures were discussed and approved by the Institutional Animal Care and Use Committee of the Hanyang University. The survival rate over time is shown in FIG. 9, and the change rate in body weight of mice in each experimental group was measured and shown in FIG. 10A. The fecal occult bleeding per rectum, total bleeding loss, and fecal concentration were measured daily.
By the same method as in Example 6.1, experimental groups were divided into a DSS untreated group (Control), a DSS treated group, and a DSS-+β-lapachone 80 mg/kg treated group, respectively, and treated. After the end of the experiment, the mice were sacrificed to remove the colon, and the accurate colon length was measured using a Vernier caliper, and is shown FIGS. 11A and 11B. In addition, the mRNA levels of genes of interleukin-1beta (IL-1β), interleukin-6 (IL-6), interleukin-18 (IL-18), interferon-γ (INF-γ), tumor necrosis factor-α (TNF-α), tumor necrosis factor-β (TNF-β), and monocyte chemoattractant protein-1 (MCP-1), which were inflammatory cytokine factors in the colon tissue, were analyzed by a real-time polymerase chain reaction through a conventional experiment procedure, and are shown in FIG. 12.

[9] = Poly I:C 5 mg/kg i.p. 8 weeks, then β-lapachone 40, 80 mg/kg in diet 8 weeks
[10] = vs ursodeoxycholic acid 100 mg/kg and obeticholic acid 30 mg/kg
[11] = liver mRNA, DDC-BL40 and DDC-BL80 vs DDC-vehicle
[12] = 0.1% DDC 3 days, then DDC + β-lapachone 20, 40, 80 mg/kg in diet 4 days, depending on the concentration
[13] = DDC + β-lapachone 20, 40, 80, 100 mg/kg in diet, depending on the concentration
[14] = liver mRNA, DDC + β-lapachone, depending on the concentration
[15] = DSS + β-lapachone 80 mg/kg vs DSS

CC1(C)CCC2=C(O1)c1ccccc1C(=O)C2=O [β-lapachone]
ALP in the blood [1, 9]: inhibited
ALT in the blood [1, 9]: inhibited
AST in the blood [1, 9]: inhibited
effect on blood indexes (AST, ALT, ALP) compared with comparative substances [1, 10]: excellent effect compared with the comparative substances ursodeoxycholic acid (UDCA) and obeticholic acid (OCA)
lesions around the portal vein (PV) and bile ducts (H&E) ([2]; DDC-BL40 and DDC-BL80 (40 and 80 mg/kg in diet, 17 days; DDC 14 days) compared with DDC-vehicle, concentration dependent): significant lesion reductions
transcriptional level of Col1α1 [2, 11]: significantly reduced
transcriptional level of Col4α1 [2, 11]: significantly reduced
transcriptional level of TGF-β1 [2, 11]: significantly reduced
transcriptional level of fibronectin [2, 11]: significantly reduced
transcriptional level of α-SMA [2, 11]: significantly reduced
formation of connective tissues (Sirius Red and Masson's trichrome staining) ([2]; liver of DDC mice treated with β-lapachone 40 and 80 mg/kg vs DDC-vehicle): inhibited such fibrosis progression
ALP in the blood [3, 12]: inhibited
bilirubin in the blood [3, 12]: inhibited
effect on blood indexes (bilirubin, ALP) compared with positive controls ([3]; vs ursodeoxycholic acid (UDCA) and obeticholic acid (OCA)): excellent effect compared with ursodeoxycholic acid (UDCA) and obeticholic acid (OCA)
ALP in the blood [4, 13]: inhibited
ALT in the blood [4, 13]: inhibited
AST in the blood [4, 13]: inhibited
bilirubin in the blood [4, 13]: inhibited
transcriptional level of IL-1β ([4]; liver mRNA, DDC + β-lapachone): inhibited
transcriptional level of TNFα ([4]; liver mRNA, DDC + β-lapachone): inhibited
transcriptional level of Col1α1 [4, 14]: inhibited
transcriptional level of Col1α2 [4, 14]: inhibited
transcriptional level of TGF-β1 [4, 14]: inhibited
effect on blood indexes (ALT, AST, ALP, bilirubin) compared with positive controls [4, 10]: excellent effects compared with ursodeoxycholic acid (UDCA) and obeticholic acid (OCA)
expression level of IL-1β increased by LPS and ATP [5]: reduced depending on the concentration
expression level of IL-18 increased by LPS and ATP [5]: reduced depending on the concentration
expression level of IL-1β protein increased by LPS and ATP [6]: reduced depending on the concentration
expression level of TNF-α protein increased by LPS and ATP [6]: reduced depending on the concentration
protein expression level of fibronectin increased by TGF-β1 [7]: reduced depending on the concentration
protein expression level of α-SMA increased by TGF-β1 [7]: reduced depending on the concentration
mRNA level of IL-1β in colon tissue [8, 15]: significantly reduced
mRNA level of IL-6 in colon tissue [8, 15]: significantly reduced
mRNA level of IL-18 in colon tissue [8, 15]: significantly reduced
mRNA level of INF-γ in colon tissue [8, 15]: significantly reduced
mRNA level of MCP-1 in colon tissue [8, 15]: significantly reduced
mRNA level of TNF-α in colon tissue [8, 15]: significantly reduced
mRNA level of TNF-β in colon tissue [8, 15]: significantly reduced
colon length ([8]; DSS + β-lapachone 80 mg/kg vs DSS treated group): recovered
colitis score ([8]; sum of scores for body weight reduction, feces condition, blood feces (Table 3), β-lapachone 40 and 80 mg/kg): reduced depending on the treatment concentration
mortality (percent of mice that died) ([8]; β-lapachone 40 mg/kg orally): 50%
mortality (percent of mice that died) ([8]; β-lapachone 80 mg/kg orally): 20%
